One assay deals with MNK1 (Homo sapiens, UniProt Q9BUB5). Nature of the assay: In vitro MNK kinase assay (Caliper LabChip mobility shift). The class given is biochemical. The conditions noted are these: enzymatic, 1.2 mM ATP; read-out: IC50 Mnk1.
A further assay addresses MNK2 (Homo sapiens (Human), UniProt Q9HBH9). Described as above. The class given is biochemical. Conditions: enzymatic, 250 μM ATP; read-out: IC50 Mnk2.

Structures are written as SMILES.

Chain of MNK2 (Q9HBH9 84-388): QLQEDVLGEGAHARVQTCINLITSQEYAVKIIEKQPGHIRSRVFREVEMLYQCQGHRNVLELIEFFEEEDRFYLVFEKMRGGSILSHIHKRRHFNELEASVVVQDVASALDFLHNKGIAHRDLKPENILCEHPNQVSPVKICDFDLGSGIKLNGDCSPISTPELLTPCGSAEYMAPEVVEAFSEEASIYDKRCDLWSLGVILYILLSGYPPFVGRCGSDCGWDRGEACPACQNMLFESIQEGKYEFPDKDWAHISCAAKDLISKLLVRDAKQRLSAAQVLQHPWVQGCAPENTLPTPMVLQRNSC

With `N#Cc1ccc(-c2cnc3ccc(-c4ccc(C(=O)N5CCC(N6CCOCC6)CC5)cc4)cn23)cc1` [Example 134, 4-(6-(4-(4-morpholinopiperidine-1-carbonyl)phenyl)imidazo[1,2-a]pyridin-3-yl)benzonitrile], the IC50 on MNK1 and on MNK2 was less than 100 nM in each case.
In the case of `CN1CCN(C(=O)c2ccc(-c3cn4c(-c5ccc(C#N)cc5)cnc4cn3)c(O)c2)CC1` [Example 38, 4-(6-(2-hydroxy-4-(4-methylpiperazine-1-carbonyl)phenyl)imidazo[1,2-a]pyrazin-3-yl)benzonitrile], the IC50 at MNK1 and at MNK2 was less than 1000 nM in each case.
Turning to `Cc1cc(-c2cn3c(-c4ccc(C#N)cc4)cnc3cn2)ccc1C(=O)N1CCC(C)(N)CC1` [Example 28, 4-(6-(4-(4-amino-4-methylpiperidine-1-carbonyl)-3-methylphenyl)imidazo[1,2-a]pyrazin-3-yl)benzonitrile], the IC50 at MNK1 and on MNK2 was less than 100 nM in each case.
Regarding `N#Cc1ccc(-c2cnc3cnc(-c4ccc(C(=O)N5CCC(N)CC5)c(Cl)c4)cn23)cc1` [Example 31, 4-(6-(4-(4-aminopiperidine-1-carbonyl)-3-chlorophenyl)imidazo[1,2-a]pyrazin-3-yl)benzonitrile], the IC50 on MNK1 and on MNK2 was less than 1000 nM each time.
Consider `N#Cc1ccc(-c2cnc3ccc(-c4ccc(C(=O)N5CCNCC5)cc4)nn23)cc1` [Example 65, 4-(6-(4-(piperazine-1-carbonyl)phenyl)imidazo[1,2-b]pyridazin-3-yl)benzonitrile], for which the IC50 at MNK1 and on MNK2 was less than 100 nM in each case.
As for `CN(C)C1CCN(C(=O)c2ccc(-c3ccc4ncc(-c5ccc(C#N)cc5)n4n3)cc2)CC1` [Example 63, 4-(6-(4-(4-(dimethylamino)piperidine-1-carbonyl)phenyl)imidazo[1,2-b]pyridazin-3-yl)benzonitrile], the IC50 on MNK1 and on MNK2 was less than 100 nM throughout.
Take `N#Cc1ccc(-c2cnc3ccc(-c4ccc(C(=O)N5CCOCC5)c(O)c4)cn23)cc1` [Example 167, 4-(6-(3-hydroxy-4-(morpholine-4-carbonyl)phenyl)imidazo[1,2-a]pyridin-3-yl)benzonitrile]: the IC50 at MNK1 and on MNK2 was less than 100 nM in each case.
In the case of `Cc1nnc(C2(C)CCN(C(=O)c3ccc(-c4ccc5ncc(-c6ccc(C#N)cc6)n5c4)cc3)CC2)o1` [Example 135, 4-(6-(4-(4-methyl-4-(5-methyl-1,3,4-oxadiazol-2-yl)piperidine-1-carbonyl)phenyl)imidazo[1,2-a]pyridin-3-yl)benzonitrile], the IC50 at MNK1 and on MNK2 was less than 100 nM in each case.
For `CNC1CCN(C(=O)c2ccc(-c3ccc4ncc(-c5ccc(C#N)cc5)n4n3)cc2)CC1` [Example 60, 4-(6-(4-(4-(methylamino)piperidine-1-carbonyl)phenyl)imidazo[1,2-b]pyridazin-3-yl)benzonitrile], the IC50 on MNK1 and on MNK2 was less than 100 nM throughout.
`N#Cc1ccc(-c2cnc3ccc(-c4ccc(C(=O)NCCN5CCOCC5)cc4)cn23)cc1` [Example 116, 4-(3-(4-cyanophenyl)imidazo[1,2-a]pyridin-6-yl)-N-(2-morpholinoethyl)benzamide]: the IC50 on MNK1 and at MNK2 was less than 1000 nM throughout.
With `CN1CCN(C2CCN(C(=O)c3ccc(-c4ccn5ncc(-c6ccc(C#N)cc6)c5n4)cc3)CC2)CC1` [Example 179, 4-(5-(4-(4-(4-methylpiperazin-1-yl)piperidine-1-carbonyl)phenyl)pyrazolo[1,5-a]pyrimidin-3-yl)benzonitrile], the IC50 at MNK1 and at MNK2 was less than 100 nM throughout.
Regarding `CC1(N2CCOCC2)CCN(C(=O)c2ccc(-c3ccc4ncc(-c5ccc(C#N)cc5)n4c3)cc2)CC1` [Example 163, 4-(6-(4-(4-methyl-4-morpholinopiperidine-1-carbonyl)phenyl)imidazo[1,2-a]pyridin-3-yl)benzonitrile], the IC50 at MNK1 and at MNK2 was less than 100 nM each time.
In the case of `CNc1cc(-c2ccc3ncc(-c4ccc(C#N)cc4)n3c2)ccc1C(=O)N1CCOCC1` [Example 151, 4-(6-(3-(methylamino)-4-(morpholine-4-carbonyl)phenyl)imidazo[1,2-a]pyridin-3-yl)benzonitrile], the IC50 at MNK1 is less than 1000 nM; on MNK2 it was less than 100 nM.
On the same counts, the results for `N#Cc1ccc(-c2cnc3cnc(-c4ccc(C(=O)N5CCC(N)CC5)c(F)c4)cn23)cc1` [Example 29, 4-(6-(4-(4-aminopiperidine-1-carbonyl)-3-fluorophenyl)imidazo[1,2-a]pyrazin-3-yl)benzonitrile] are less than 1000 nM and less than 1000 nM.
For the compound `N#Cc1ccc(-c2cnc3cnc(-c4ccc(C(=O)N5CCC6(CC5)COC6)cc4)cn23)cc1` [Example 24, 4-(6-(4-(2-oxa-7-azaspiro[3.5]nonane-7-carbonyl)phenyl)imidazo[1,2-a]pyrazin-3-yl)benzonitrile], the IC50 on MNK1 and on MNK2 was less than 1000 nM in each case.
In the case of `N#Cc1ccc(-c2cnc3ccc(-c4ccc(C(=O)N5CCCNCC5)cc4)cn23)cc1` [Example 107, 4-(6-(4-(1,4-diazepane-1-carbonyl)phenyl)imidazo[1,2-a]pyridin-3-yl)benzonitrile], the IC50 on MNK1 and at MNK2 was less than 100 nM throughout.
Consider `COc1cc(C(=O)N2CCN(C)CC2)ccc1-c1ccc2ncc(-c3ccc(C#N)cc3)n2n1` [Example 78, 4-(6-(2-methoxy-4-(4-methylpiperazine-1-carbonyl)phenyl)imidazo[1,2-b]pyridazin-3-yl)benzonitrile], for which the IC50 at MNK1 and at MNK2 was less than 100 nM throughout.
Consider `CC(=O)Nc1cc(-c2ccc3ncc(-c4ccc(C#N)cc4)n3c2)ccc1C(=O)N1CCNCC1` [Example 170, N-(5-(3-(4-cyanophenyl)imidazo[1,2-a]pyridin-6-yl)-2-(piperazine-1-carbonyl)phenyl)acetamide], for which the IC50 on MNK1 and at MNK2 was less than 100 nM each time.
Turning to `N#Cc1ccc(-c2cnn3ccc(-c4ccc(C(=O)N5CCOCC5)cc4)nc23)cc1` [Example 185, 4-(5-(4-(morpholine-4-carbonyl)phenyl)pyrazolo[1,5-a]pyrimidin-3-yl)benzonitrile], the IC50 at MNK1 and at MNK2 was less than 100 nM each time.
Take `CN1CCCCC12CCN(C(=O)c1ccc(-c3ccc4ncc(-c5ccc(C#N)cc5)n4c3)cc1)CC2` [Example 119, 4-(6-(4-(1-methyl-1,9-diazaspiro[5.5]undecane-9-carbonyl)phenyl)imidazo[1,2-a]pyridin-3-yl)benzonitrile]: the IC50 at MNK1 and on MNK2 was less than 100 nM each time.
Turning to `CN1CCN(C(=O)c2ccc(-c3ccc4ncc(-c5ccc(C#N)cc5)n4c3)cc2C(F)(F)F)CC1` [Example 145, 4-(6-(4-(4-methylpiperazine-1-carbonyl)-3-(trifluoromethyl)phenyl)imidazo[1,2-a]pyridin-3-yl)benzonitrile], the IC50 was less than 100 nM at MNK1 and less than 1000 nM at MNK2.
For `CC(C)(C)N1CCN(C(=O)c2ccc(-c3cn4c(-c5ccc(C#N)cc5)cnc4cn3)cc2)CC1` [Example 26, 4-(6-(4-(4-tert-butylpiperazine-1-carbonyl)phenyl)imidazo[1,2-a]pyrazin-3-yl)benzonitrile] the same measures were less than 1000 nM and less than 1000 nM.
Consider `CN1CCN(C(=O)c2ccc(-c3ccc4ncc(-c5ccc(C#N)cc5)n4c3)c(F)c2)CC1` [Example 140, 4-(6-(2-fluoro-4-(4-methylpiperazine-1-carbonyl)phenyl)imidazo[1,2-a]pyridin-3-yl)benzonitrile], for which the IC50 on MNK1 and at MNK2 was less than 100 nM each time.
In the case of `CCC1(N)CCN(C(=O)c2ccc(-c3ccc4ncc(-c5ccc(C#N)cc5)n4c3)cc2)CC1` [Example 113, 4-(6-(4-(4-amino-4-ethylpiperidine-1-carbonyl)phenyl)imidazo[1,2-a]pyridin-3-yl)benzonitrile], the IC50 at MNK1 and at MNK2 was less than 100 nM each time.
In the case of `N#Cc1ccc(-c2cnc3ccc(-c4ccc(C(=O)NCC(=O)N5CCOCC5)cc4)cn23)cc1` [Example 115, 4-(3-(4-cyanophenyl)imidazo[1,2-a]pyridin-6-yl)-N-(2-morpholino-2-oxoethyl)benzamide], the IC50 on MNK1 and at MNK2 was less than 1000 nM each time.
For `Cc1cc(-c2ccc3ncc(-c4ccc(C#N)cc4)n3c2)ccc1C(=O)N1CCOCC1` [Example 156], the IC50 at MNK1 and on MNK2 was less than 1000 nM throughout.
As for `N#Cc1ccc(-c2cnc3ccc(-c4ccc(C(=O)N5CCC(N)CC5)cc4)nn23)cc1` [Example 56, 4-(6-(4-(4-aminopiperidine-1-carbonyl)phenyl)imidazo[1,2-b]pyridazin-3-yl)benzonitrile], the IC50 on MNK1 and on MNK2 was less than 100 nM each time.
On to `N#Cc1ccc(-c2cnc3cnc(-c4ccc(C(=O)N5CCN(C6CC6)CC5)cc4)cn23)cc1` [Example 14, 4-(6-(4-(4-cyclopropylpiperazine-1-carbonyl)phenyl)imidazo[1,2-a]pyrazin-3-yl)benzonitrile], for which the IC50 on MNK1 and at MNK2 was less than 1000 nM in each case.
On to `CS(=O)(=O)NC1CCN(C(=O)c2ccc(-c3ccc4ncc(-c5ccc(C#N)cc5)n4c3)cc2)CC1` [Example 111, N-(1-(4-(3-(4-cyanophenyl)imidazo[1,2-a]pyridin-6-yl)benzoyl)piperidin-4-yl)methanesulfonamide], for which the IC50 on MNK1 and at MNK2 was less than 100 nM in each case.
For the compound `CN1CCN(C(=O)c2ccc(-c3ccc4ncc(-c5ccc(C#N)cc5)n4c3)cc2)CC1` [Example 95, 4-(6-(4-(4-Methylpiperazine-1-carbonyl)phenyl)imidazo[1,2-a]pyridin-3-yl)benzonitrile], the IC50 on MNK1 and at MNK2 was less than 100 nM throughout.
Take `CNc1cc(-c2ccc3ncc(-c4ccc(C#N)cc4)n3c2)ccc1C(=O)N1CCN(C)CC1` [Example 150, 4-(6-(3-(methylamino)-4-(4-methylpiperazine-1-carbonyl)phenyl)imidazo[1,2-a]pyridin-3-yl)benzonitrile]: the IC50 on MNK1 and on MNK2 was less than 100 nM each time.

As a reminder, the IC50 is the midpoint of a concentration-inhibition curve.
